Earlier results on six compounds are cited in patent EP2739646B1, “COMPREHENSIVE BUFFER SYSTEM FOR RENATURING HUMAN PROINSULIN OR PROINSULIN DERIVATIVES” (Hermann, Stefan, priority 2011, dated 2012).

Assay in data set [1]: not given
The source holds these as a separate data set.

The structures appear in SMILES notation. Where two headings read alike, the source gives them in different places.

Take `O=C(O)CCCC(=O)O` [glutaric acid]: the water solubility (temperature not given) is 64.0 g/100ml.
For `C[C@H](N)C(=O)O` [alanine], the water solubility (at 25°C) is given as 16.5 g/100g water.
By pKa is commonly meant the pH at which an ionisable group is half protonated. In the case of `N=C(N)NCCC[C@H](N)C(=O)O` [arginine], the values for the pKa in data set [1] (first value listed) and in data set [1] (second value listed) were 2.01 and 9.4, respectively.
Regarding `N[C@@H](CS)C(=O)O` [cysteine], the water solubility (at 25°C) is listed as greater than 50 g/100g water. Also, the pKa is recorded as 2.05 in data set [1] (first value listed), 10.25 in data set [1] (second value listed) and 8.00 in data set [1] (third value listed).
Turning to `CCCCC(=O)O` [valeric acid], the water solubility (temperature not given) is on record as 4.97 g/100ml.
Consider `O=C(O)[C@@H]1CCCN1` [proline], for which the values for the pKa in data set [1] (first value listed) and in data set [1] (second value listed) were 2.0 and 10.6, respectively.
